According to patent publication US5075311A, “HMG-CoA reductase inhibiting substituted pryido (2,3-d) pyrimidines” (Bayer Aktiengesellschaft, priority 1989, dated 1991):

System: HMG-CoA reductase (3-hydroxy-3-methyl-glutaryl-coenzyme A reductase)
Assay: HMG-CoA reductase enzyme activity determination (modified from G. C. Ness et al.), relative in vitro activity versus mevinolin
Assay type: biochemical, rat (male Rico rats, liver)
Details: from IC50 values, IC50 of reference mevinolin set at 1; 20 min preincubation at 37° C., 60 min incubation
Protocol: The enzyme activity determination was carried out as modified by G. C. Ness et al., Archives of Biochemistry and Biphysics 197, 493-499 [1979]. Male Rico rats (body weight 300-400 g) were treated for 11 days with altromin powdered feed to which 40 g of cholestyramine/kg of feed had been added. After description, the livers were removed from the animals and placed on ice. The livers were comminuted and homogenized 3 times in 3 volumes of 0.1 m sucrose, 0.05 m KCl, 0.04 m Kx Hy phosphate, 0.03 m ethylenediaminetetraacetic acid, 0.002 m dithiothreitol [SPE] buffer pH 7.2 in a Potter-Elvejem homogenizer. The mixture was then centrifuged at 15,000 g for 15 minutes and the sediment was discarded. […]
After incubating for 60 minutes at 37° C., the batch was centrifuged and 600 μl of the supernatant was applied to a 0.7×4 cm column packed with a 5-chloride 100-200 mesh (anion exchanger). The column was subsequently washed with 2 ml of distilled water and 3 ml of Aquasol were added to runnings plus washing water and counted in an LKB scintillation counter. IC50 values were determined by intrapolation by plotting the percentage inhibition against the concentration of the compound in the test. In order to determine the relative inhibitory potency, the IC50 value of the reference substance mevinolin was set at 1 and compared with the simultaneously determined IC50 value of the test compound.

Compound | relative activity (mevinolin = 1)
CCCCn1c(=O)[nH]c(=O)c2c(-c3ccc(F)cc3)c(/C=C/[C@@H](O)C[C@@H](O)CC(=O)OC)c(C(C)C)nc21 (relative stereo) [Example 8, Methyl erythro-(E)-7-[1-butyl-5-(4-fluorophenyl)-7-isopropyl-2,4-dioxo-1,2,3,4-terahydro-pyrido(2,3-d)pyrimidin-6-yl]-3,5-dihydroxy-hept-6-enoate] | 2
COC(=O)C[C@H](O)C[C@H](O)/C=C/c1c(C(C)C)nc2c(c1-c1ccc(F)cc1)c(=O)[nH]c(=O)n2C (relative stereo) [Example 16, Methyl erythro-(E)-7-[5-(4-fluorophenyl)-7-isopropyl-1-methyl-2,4-dioxo-1,2,3,4-tetrahydro-pyrido(2,3-d)pyrimidin-6-yl]-3,5-dihydroxy-hept-6-enoate] | 6
